From patent publication US20230391842A1, “RETRO-INVERSO PEPTIDES” (Herantis Pharma OYJ, priority 2019, published 2023)
pKd: −log10 of the molar value. Positions of bridges follow the written chain, without caps; N, C: chain ends. Non-standard residues stand in square brackets, D forms with d. Residues, ends and D or L forms follow the SMILES beside them.

Legend:
[1] = system: dopaminergic TH-positive neurons injured with MPP+; test: Neuroprotective effect on dopaminergic TH-positive neurons injured with MPP+ (primary mesencephalic culture); assay type: cell-based, rat; details: MPP+ 4 μM, 48 h; stated for 'most cases'
Method: Neuroprotective effects of compounds 1-20 (SEQ ID NO:s 1-20, parent and retro-inverso) were tested in an in vitro model in which primary cultures of rat embryonic mesencephalic neurons were stressed with MPP+, the active metabolite of neurotoxin 1-methyl-4-phenyl-1,2,3,6-tetrahydropyridine (MPTP). MPP+ kills dopaminergic (TH-positive) neurons via a variety of toxic mechanisms, including mitochondrial dysfunction, generation of peroxynitrite, oxidative stress, ER stress and induction of apoptosis.
Rat dopaminergic neurons were cultured as described by Visanji et al., 2008. Briefly, the midbrains obtained from 15-day-old rat embryos (Janvier, France) were dissected, and the ventral portion of the mesencephalic flexure, a region of the developing brain rich in dopaminergic neurons, was used for the cell preparations. The midbrain cells were dissociated by trypsinization for 20 min at 37° C. […] The reaction was stopped by adding Dulbecco's modified Eagle's medium (DMEM) containing DNAase I grade II (0.5 mg/mL) and 10% of fetal calf serum (FCS). Cells were then mechanically dissociated by 3 passages through a 10 ml pipette. Cells were then centrifuged at 180×g for 10 min at +4° C. on a layer of BSA (3.5%) in L15 medium. The cell pellets was re-suspended in a defined culture serum-free medium consisting of Neurobasal (Invitrogen) supplemented with B27 (2%), L-glutamine (2 mM) and 2% of PS solution and 10 ng/ml of Brain-derived neurotrophic factor (BDNF) and 1 ng/mL of Glial-Derived Neurotrophic Factor (GDNF). […] The cells were seeded at a density of 40 000 cells/well in 96 well-plates (pre-coated with poly-L-lysine) and maintained in a humidified incubator at 37° C. in 5% CO2/95% air atmosphere. Half of the medium was changed every 2 days with fresh medium. On 96-wells plates, only 60 wells are used. To avoid any edge effect, the first and last lines and columns were not be used for culture and were filled with sterile water.
On day 6 of culture, CDNF or the compounds 1-20 (SEQ ID NO:s 1-20, parent and retro-inverso), were dissolved in culture medium and then pre-incubated with mesencephalic neurons for 4 hours before the MPP+ application. Four hours after the preincubation of the compounds, MPP+ was added to a final concentration of 4 μM, diluted in control medium still in presence of compounds for 48 h.
48 hours after intoxication, the cells were fixed by a solution of 4% paraformaldehyde in PBS, pH 7.3 for 20 min at room temperature. The cells were washed twice in PBS, and then permeabilized and non-specific sites were blocked with a solution of PBS containing 0.1% of saponin and 1% FCS for 15 min at room temperature. Next, the cells were incubated with (a) a monoclonal antibody anti-Tyrosine Hydroxylase (TH) produced in mouse at dilution of 1:1 0000 and with (b) a polyclonal antibody anti-alpha-synuclein (aSyn) antibody produced in rabbit at dilution of 1:400 in PBS containing 1% FCS, 0.1% saponin, for 2 h at room temperature.
48 hours after intoxication, the cell culture supernatant was removed, and the cells fixed by a solution of 4% paraformaldehyde in PBS, pH 7.3 for 20 min at room temperature. The cells were washed twice in PBS, and then permeabilized and non-specific sites were blocked with a solution of PBS containing 0.1% of saponin and 1% FCS for 15 min at room temperature. Then, the cells were incubated with a) a monoclonal Anti-Tyrosine Hydroxylase (TH) antibody produced in mouse at dilution of 1:10000 in PBS containing 1% FCS, 0.1% saponin, for 2 hours at room temperature, and b) a polyclonal anti-postsynaptic density protein-95 (PSD-95) antibody produced in rabbit at dilution of 1:200 in PBS containing 1% FCS, 0.1% saponin, for 2 h at room temperature. This antibody stains specifically synapses.
For each condition, pictures representing the whole well area were automatically acquired using ImageXpress (Molecular device) at 10× (20 pictures, for TH and a-syn) or at 40× magnification (60 pictures, for TH and PSD-95). […]

[2] = In vivo pharmacokinetics after intravenous administration to rats; details: rat, 5 mg/kg intravenous bolus injection, male Sprague-Dawley rats, plasma
Method: Test compounds were intravenously (i.v.) administered to male Spraque-Dawley rats (about six weeks old, n=3 per compound) at 5 mg/kg. Blood samples were collected from jugular vein through implanted in-dwelling catheters (250 μl blood) into labelled polypropylene tubes containing anticoagulant (heparin) at 2 min, 5 min, 15 min, 30 min, 1 h, 2 h and 4 h after compound administration and held on wet ice for a maximum of 30 minutes. The blood samples were centrifuged for plasma separation (4° C., 21100 G, 5 min). Tolbutamide 500 ng/ml with 10% TFA in acetonitrile or in MeCN was used as an internal standard solution. The standard samples were prepared into rat plasma by spiking the matrix into concentrations 2-10 000 ng/ml of the analyte, respectively, and otherwise treated as the samples. To 50 μl aliquots of sample plasma was added 200 μl of internal standard. Samples were mixed (150 rpm, 15 min) and centrifugated (3000 rpm, 15 min). The analytical method was optimized for reaction monitoring chromatographic (peak shape & retention) shifts and mass spectrometric properties (ionization efficiency, MS/MS detection). Supernatants were is analyzed by UHPLC-TOF mass spectrometry using electrospray ionization. […]

[3] = molecular target: nucleotide-binding domain of GRP78 (GRP78-NBD); test: Binding to GRP78-NBD Kd (μM)
Excerpt: Table printed on a drawing sheet, FIG. 5B
Head of the field: Binding to GRP78-NBD Kd (μM)
GRP78-NBD is shown in a to translucent surface model along with its cartoon trace. The Cys-Cys bond in compound 14 (SEQ ID NO: 14) is shown in sticks.
The binding affinities are obtained by microscale thermophoresis-based cell free assay.
GSK2606414 was used to inhibit PERK signaling and KIRA6 to inhibit IRE1alpha signaling. * p<0.05, ** p<0.01, *** p<0.001, **** p<0.0001 one-way ANOVA test with post-hoc Fisher's LSD test for pairwise comparison vs MPP+ negative control. #p<0.05, ##p<0.01, ###p<0.001, ####p<0.0001 one-way ANOVA test with post-hoc Fisher's LSD test for pairwise comparison between effect of compound alone and its combination with UPR signal inhibitor.
Where the first naming reader finds the target: head: Binding to GRP78-NBD Kd (μM)

[4] = system: unfolded protein response (UPR) pathway signaling in TH-positive neurons injured with MPP+; test: Dependence of neuroprotection in MPP+-injured mesencephalic neurons on UPR signaling (PERK / IRE1alpha inhibitors); assay type: cell-based, rat
Method: CDNF and MANF protect cells from ER stress-induced cell dysfunction or cell death, such as apoptosis by modulating cellular responses to ER stress. […] Binding of compounds to GRP78-NBD was assessed in a cell-free binding assay using purified recombinant GRP78-NBD and synthesized peptides. As GRP78 also serves as a critical ligand of the three receptors of the unfolded protein response (UPR) pathway, IRE1[…], PERK and ATF6, the dependency of the compounds' neuroprotective effects on UPR signaling was also tested.
The neuronal cell culture, MPP+ intoxication, immunostaining and analysis of neuroprotective effects of compounds were performed as in Example 1. PERK inhibitor GSK2606414 (2 µM, Sigma) or IRE1alpha inhibitor KIRA6 (2 µM, Sigma) were added to is the culture 1 h before addition of the test compounds.

[5] = In vitro metabolic stability in rat plasma; assay type: in vitro ADME; details: 1 μM, 37° C., up to 120 min
Method: Metabolic stability of the retro-inverso and native control peptides was studied using rat plasma over the time period of 120 min, with initial test concentration of 1 μM. Samples were analysed using LC/QE-orbitrap-MS. Calculated half-life is based on compound disappearance in rat plasma.
The incubation was terminated by acetonitrile. […] Stock solutions was prepared using 50% DMSO, and the compounds were spiked 1/100 to incubation to have final DMSO content of 0.5%. […] For analysis of compounds 13-14 and 19-20 stock solutions were prepared with PBS, and samples were analyzed by UHPLC-ToF mass spectrometry. Enalapril 1 μM was used as a disappearance rate control.

rat hepatocytes = test: In vitro metabolic stability in rat hepatocytes; details: 1 μM, 37° C., 0-60 min
[6] = In vitro metabolic stability in human plasma; assay type: in vitro ADME; details: 1 μM, 37° C., up to 120 min
Method: Metabolic stability was studied using human plasma over the time period of 120 min, with initial test concentration of 1 μM. Samples were analysed using LC/QE-orbitrap-MS. Calculated half-life is based on compound disappearance in human plasma.
The incubation was terminated by acetonitrile. […] Propanthelin bromide 1 uM was used as a disappearance rate control. […] The in vitro half-life (t1/2) of is study compound is defined as: t1/2=ln2/k.

human hepatocytes = test: In vitro metabolic stability in human hepatocytes; details: 1 μM, 37° C., 0-60 min

SMILES | potency of retro-inverso peptides relative to their parent compounds and to full-length CDNF protein [1] | AUC(0-inf) [2] | MRT [2] | Vd [2] | half-life [2] | clearance ([2]; read-out: CI) | pKd [3] | neuroprotective effect in the presence of PERK inhibitor GSK2606414 ([4]; GSK2606414 added 1 h before test compound) | neuroprotective effect in the presence of IRE1alpha inhibitor KIRA6 ([4]; KIRA6 added 1 h before test compound) | stability in rat plasma as compared to parent compound [5] | stability in rat hepatocytes as compared to parent compound (rat hepatocytes) | stability in human plasma as compared to parent compound [6] | stability in human hepatocytes as compared to parent compound (human hepatocytes)
C[C@H](O)[C@@H](NC(=O)[C@H]1CSSC[C@@H](NC(=O)[C@@H](C)NC(=O)[C@H](N)CCC(=O)O)C(=O)NCC(=O)N[C@H](CCCCN)C(=O)N1)C(=O)N[C@H](CCC(=O)O)C(=O)O [Compound 20, EACGKCTE] | comparable | 18400 ng·h/mL | 23.9 min | 0.11 L/kg | 20.5 min | 4.57 mL/min/kg | 5.47 | abolished | abolished | significantly improved stability | significantly improved stability | – | –
C[C@H](O)[C@@H](NC(=O)[C@H]1CSSC[C@@H](NC(=O)[C@@H](C)NC(=O)[C@@H](CCC(=O)O)NC(=O)[C@@H](CCCCN)NC(=O)[C@H](N)CO)C(=O)NCC(=O)N[C@H](CCCCN)C(=O)N1)C(=O)N[C@H](CCC(=O)O)C(=O)NCC(=O)O [Compound 8, SKEACGKCTEG] (H-[dS][dK][dE][dA][dC]G[dK][dC][dT][dE]G-OH; disulfide 5-8; N-terminus and C-terminus assumed) | – | – | – | – | – | – | – | – | – | significantly improved stability | significantly improved stability | improved stability | significantly improved stability
